Data from US8921122B2, “System and method for quantitative assessment of biological migration behavior” (The General Hospital Corporation, priority 2008, dated 2014).

B1: P-selectin: Human recombinant P-selectin, cell adhesion molecule used to coat capture surface (R&D Systems ADP3-050) (protein, UniProt P16109 42-830, looked up)
P-selectin: WTYHYSTKAYSWNISRKYCQNRYTDLVAIQNKNEIDYLNKVLPYYSSYYWIGIRKNNKTWTWVGTKKALTNEAENWADNEPNNKRNNEDCVEIYIKSPSAPGKWNDEHCLKKKHALCYTASCQDMSCSKQGECLETIGNYTCSCYPGFYGPECEYVRECGELELPQHVLMNCSHPLGNFSFNSQCSFHCTDGYQVNGPSKLECLASGIWTNKPPQCLAAQCPPLKIPERGNMTCLHSAKAFQHQSSCSFSCEEGFALVGPEVVQCTASGVWTAPAPVCKAVQCQHLEAPSEGTMDCVHPLTAFAYGSSCKFECQPGYRVRGLDMLRCIDSGHWSAPLPTCEAISCEPLESPVHGSMDCSPSLRAFQYDTNCSFRCAEGFMLRGADIVRCDNLGQWTAPAPVCQALQCQDLPVPNEARVNCSHPFGAFRYQSVCSFTCNEGLLLVGASVLQCLATGNWNSVPPECQAIPCTPLLSPQNGTMTCVQPLGSSSYKSTCQFICDEGYSLSGPERLDCTRSGRWTDSPPMCEAIKCPELFAPEQGSLDCSDTRGEFNVGSTCHFSCDNGFKLEGPNNVECTTSGRWSATPPTCKGIASLPTPGVQCPALTTPGQGTMYCRHHPGTFGFNTTCYFGCNAGFTLIGDSTLSCRPSGQWTAVTPACRAVKCSELHVNKPIAMNCSNLWGNFSYGSICSFHCLEGQLLNGSAQTACQENGHWSTTVPTCQAGPLTIQEALTYFGGAVASTIGLIMGGTLLALLRKRFRQKDDGKCPLNPHSHLGTYGVFTNAAFDPSP
B2: E-selectin: Human recombinant E-selectin, cell adhesion molecule used to coat capture surface (R&D Systems ADP1-050) (protein, UniProt P16581 22-610, looked up)
E-selectin: WSYNTSTEAMTYDEASAYCQQRYTHLVAIQNKEEIEYLNSILSYSPSYYWIGIRKVNNVWVWVGTQKPLTEEAKNWAPGEPNNRQKDEDCVEIYIKREKDVGMWNDERCSKKKLALCYTAACTNTSCSGHGECVETINNYTCKCDPGFSGLKCEQIVNCTALESPEHGSLVCSHPLGNFSYNSSCSISCDRGYLPSSMETMQCMSSGEWSAPIPACNVVECDAVTNPANGFVECFQNPGSFPWNTTCTFDCEEGFELMGAQSLQCTSSGNWDNEKPTCKAVTCRAVRQPQNGSVRCSHSPAGEFTFKSSCNFTCEEGFMLQGPAQVECTTQGQWTQQIPVCEAFQCTALSNPERGYMNCLPSASGSFRYGSSCEFSCEQGFVLKGSKRLQCGPTGEWDNEKPTCEAVRCDAVHQPPKGLVRCAHSPIGEFTYKSSCAFSCEEGFELHGSTQLECTSQGQWTEEVPSCQVVKCSSLAVPGKINMSCSGEPVFGTVCKFACPEGWTLNGSAARTCGATGHWSGLLPTCEAPTESNIPLVAGLSAAGLSLLTLAPFLLWLRKCLRKAKKFVPASSCQSLESDGSYQKPSYIL

How the values were obtained:
Assay type in all cases: cell-based, human
[1] = tested on: neutrophils; test: Neutrophil migration assay in chemoattractant gradients (switching gradient device); details: for average displacement in the direction of the gradient: 20 nM/450 μm fMLP or 10 nM/450 μm IL-8 gradient; for directional bias of migration profile (comparison): comparison between substrates / between chemoattractants; for Random motility coefficient (μ): initial 10 minutes of migration
Description: The gradient generating device used to study cell migration consists of two inlets, one outlet, and a cell loading port. In a similar manner as explained above, the device was primed after functionalizing the channel surface with adhesion molecules. Two syringes were prepared, one with only buffer containing 0.2% HSA while the other also containing the appropriate concentration of chemokine. Two chemoattractants, either recombinant human interleukin-8 (IL8, Catalog #208-IL, R&D Systems inc.) or N-formyl-methionyl-leucyl-phenylalanine (fMLP, Part # F3506, Sigma-Aldrich) were employed at 10 nM and 20 nM concentrations. For consistency, the two syringes were connected to the device such that chemokine gradient in the cell capture and migration chambers was always in the same orientation, from top (100%) to bottom (0%). After the device was primed, inlet ports were clamped, and the blood sample was loaded through the cell loading port as described in the following section.
A 1.25 mm lancet (Part #366579, Becton Dickinson) was used to prick a finger of a subject, and 10 μL whole blood was drawn with a pipette. Before withdrawing the blood, 70 μL of HBSS mixed with sodium heparin (Part #367871, Becton Dickinson) was injected into the open end of a loading needle using a pipette. The blood in the pipette was then directly mixed with the heparin solution inside the needle. A slight pressure was gradually applied to the open end of the needle using an index finger to push the blood sample through the tubing until a small drop of fluid appeared on the other end of the tubing. To avoid entrapment of air bubbles while connecting the tubing to the PDMS device, a drop of HBSS was always present in excess at the connecting ports of the device. The loose end of the sample tubing was held with forceps and carefully inserted in the PDMS port. Once a sealed connection was established, pressure was again applied to the loading needle to push samples through the cell capture and migration chamber. The inlet and outlet tubings were then clamped using binder clips for 5-10 minutes allowing cells to interact and bind with the glycoprotein molecules.
For the neutrophil capture characterization experiments, images for 7-10 sections (each 750 μm long, FIG. 2B) were acquired at 2 s interval using time lapse microscopy and at least 10 frames were captured. This was done to make sure that only adherent neutrophils were counted. An inverted Olympus microscope (Model # CKX41) and a CMOS color camera (Pixelink PLA742) were used to capture time lapse images in phase contrast mode. A 10× ocular and 10× objective magnification were used. The neutrophils captured in the chambers were counted manually in 7-10 distinct areas for each concentration. The average number of captured cells was calculated from three repeated experiments for each concentration and CAM. Captured time lapse images were converted to 8 bit and individual cells were tracked using Metamorph imaging software (Ver 4.1, Universal Imaging Corporation). Elapsed time and migration distance from the origin in the Y direction were derived for each cell and average displacements were calculated for the entire cell population in consideration. Migration curves representing the average distance traveled in the direction of increasing chemokine concentration against time were plotted and compared. It is notable that the slope of gradient along the flow path in the cell chamber gradually changes depending on the flow rates and the diffusivities of chemoattractants. Therefore, to maintain consistency, only the first upstream quarter of the cell chamber was considered for microscopic observation where the variations in gradient profile are minimal. […]

[2] = tested on: neutrophils; test: Further migration analysis on P-selectin functionalized migration chamber with IL-8 gradient
Description: The surface of the migration chamber of a device as described herein was functionalized with P-selectin by exposure to a 10 nM solution of P-selectin for 10 minutes, followed by Hanks buffer wash for 5 minutes. Capillary blood was collected from the tip of a finger using a lancet. A volume of 10 μL (equivalent of a small droplet) was collected in 10 μL heparin 2×, mixed well by repeated pipetting, and introduced into the device. After filling the main channel, a slow flow rate of the blood was established by raising the inlet tube at 4-5 cm above the level of the device.
After 5 minutes, the blood inlet was clamped, and buffer was introduced from one of the gradient generators that had Hanks buffer solution at both inlets. After 1 minute of washing all the red blood cells through the device, only leukocytes were left on the P selectin coated surface of the migration chamber. Based on observed morphological characteristics, most of the remaining captured cells appeared to be neutrophils. After 5-10 minutes of washing using a buffer, a gradient of IL-8 (from 0 to 12 nM over 400 μm distance) was rapidly established using the second gradient chamber. […]
The displacement of neutrophils in the direction of the gradient was also measured as a function of time.

[3] = tested on: neutrophils; test: Neutrophil capture on CAM-coated channels primed with 20 nM fMLP; details: CAM coated channel primed with 20 nM fMLP
Description: To identify whether the chemoattractant exposure has any significant effect on neutrophil capture from whole blood, the CAM coated channel was primed with 20 nM fMLP, and the cells were captured in a similar manner as described above. The effects of chemotactic priming of channels appeared significant from the statistical analysis (P<<0.05).

[4] = tested on: neutrophils; test: Neutrophil capture from whole blood on CAM-coated microfluidic channels
Text: Three different adhesion molecules (P-selectin, E-selectin and fibronectin) were used to capture primary neutrophils from whole blood in the microfluidic channels. These substrates were chosen because of their significant role in neutrophil trafficking in vivo. To characterize the neutrophil capture efficiency, the cell capture chambers were coated with the adhesion molecules by flowing through solutions of six different concentrations of each adhesion molecule (concentrations shown in Table 1). Solutions were prepared by diluting the stock solution in sterile water or phosphate buffered saline (PBS) as advised by the vendors. These dilutions were loaded in the six cell capture chambers of the device and incubated for 1 h at room temperature. After one hour, P-selectin was aspirated and the flow chambers perfused with 2% HSA (Human Serum Albumin, Sigma-Aldrich Catalog # A5843) in Hank's buffer saline solution (HBSS, Sigma-Aldrich Catalog # H9269) to block non-specific binding sites and incubated for at least 15 minutes.
The PDMS device used to characterize cell capture consists of six distinct parallel channels each having an inlet and an outlet port (FIG. 2A). The channel dimensions of each segment of the capture device are 750×450×80 μm (L×W×H). The length of each segment was chosen such that it will conveniently fit in the field of view at 10× ocular and 10× objective magnification. 10 μL whole blood was mixed with 70 μL it heparinized HBSS solution and loaded in the cell chamber. Six 1 mL syringes (Part #309602, Becton, Dickinson and Company, Franklin Lakes, N.J.) were filled with HBSS containing 0.2% HSA. Most of the air trapped in the dead volume of the syringe was eliminated by tapping the inverted syringes. Syringes were then connected to tygon tubing approximately 10 to 12 inches long (Part # TGY-010-C, Small parts Inc.) through the needles (Part # NE-301PLC, Small parts Inc.). The syringes were placed on the syringe pump rack (PHD 2000, Harvard Apparatus, Holliston, Mass.), and the loose ends of the tubing were connected to the inlets of the device properly secured on the microscope stage. Smaller fragments of tubing were connected to the outlet ports. The pump was turned on at the rate of 4-5 μL/min, and the outlet tubings were clamped once the channels were filled with fluid, while leaving the pump running. This priming step was necessary to eliminate any trapped air pockets by continuing the inflow that pressurizes the air bubbles to diffuse through the porous PDMS matrix. Blood sample could be loaded as soon as all the air pockets were eliminated.
A 1.25 mm lancet (Part #366579, Becton Dickinson) was used to prick a finger of a subject, and 10 μL whole blood was drawn with a pipette. […]

[5] = 50 μg/mL E-selectin surface, first 30 minutes
[6] = 200 μg/mL fibronectin surface, 30 minutes
[7] = substrate E-selectin, mean of about 15 cells
[8] = substrate Fibronectin, less than 10 cells
[9] = substrate P-selectin, mean of about 15 cells

| Molecule | average displacement in the direction of the gradient [1, 5] | average displacement in the direction of the gradient [1, 6] | directional bias of migration profile (comparison) [1] | Random motility coefficient (μ) [1, 7] | Random motility coefficient (μ) [1, 8] | Random motility coefficient (μ) [1, 9] | cells captured on primed vs. unprimed surface [3] | other results |
| --- | --- | --- | --- | --- | --- | --- | --- | --- |
| CSCC[C@H](NC=O)C(=O)N[C@@H](CC(C)C)C(=O)N[C@@H](Cc1ccccc1)C(=O)O [fMLP, N-formyl-methionyl-leucyl-phenylalanine, reference compound] | 50 μm | about 65 μm | greater directional bias than IL8 | 23.64 μm^2/minute | 17.7 μm^2/minute | 8.07 μm^2/minute | – | – |
| IL-8: recombinant human interleukin-8, chemoattractant (Catalog #208-IL, R&D Systems) | 70 μm | 35 μm | – | 33.92 μm^2/minute | 27.01 μm^2/minute | 14.89 μm^2/minute | – | neutrophil migration response to gradient ([2]; IL-8 gradient from 0 to 12 nM over 400 μm, P-selectin coated surface): sustained migration in the direction of the gradient |
| fibronectin | – | – | – | – | – | – | five times more cells | cells captured ([4]; coated surfaces at 200 μg/mL concentration of priming solution, whole blood): 3-4 cells/mm^2 |
| B1 | – | – | more directionally biased and persistent | – | – | – | not significant | neutrophil activation by binding to capture surface (morphology) ([4]; before chemokine introduced, P-selectin functionalized surface (FIGS. 7A-7C)): did not induce neutrophil activation; maximum capture efficiency ([4]; surface coated with 25 μg/mL solution, whole blood): approximately 35 cells/mm^2; chemokinesis of neutrophils on functionalized substrate ([2]; in the absence of IL-8): No significant chemokinesis |
| B2 | – | – | – | – | – | – | approximately twice as many cells | maximum capture efficiency ([4]; surface coated with 50 μg/mL solution, whole blood): ~15 cells/mm^2 |
